Source: US7947869B2, “Methods for inducing cotton embryogenic callus” (Monsanto Technology LLC, priority 2007, dated 2011)

Experiments:
Assay type in all cases: cell-based, cotton (cv. Coker 130)
[1] = test system: embryogenic cotton callus; test: Effect of brassinolide on embryo production at 9% and 21% O2 levels
Experimental: When embryogenic callus was placed on brassinolide containing TRP+ medium (Table 9) at either 9% or 21% O2, more embryos were produced in the brassinolide treatments at 9% than at 21% O2. Lower level of 10 μM brassinolide gave the greatest response at 9% O2 but 100 μM level of brassinolide was more useful in 21% O2. […] Different levels of O2 were created by using a PRO-OX 110 oxygen control according to manufacturer's instructions (BioSpherix, Redfield, N.Y.) in a growth chamber (e.g. Percival Scientific, Inc., Perry, Iowa). Results in Table 12 indicate that brassinolide promotes the growth and development of embryos from cotton embryogenic callus.

[2] = test system: embryogenic cotton callus; test: Effect of brassinolide in TRP+ medium on production of embryos from embryogenic cotton callus
Experimental: A brassinosteroid plant growth regulator was used to enhance cotton embryo formation. Brassinolide (i.e. 24-epibrassinolide; Super-Grow, Montreal, Calif.), at a concentration from 2 to 100 μM was added to TRP+ medium (Table 9). Embryogenic callus from the UMO medium (Table 8) was then cultured on TRP+ medium containing Brassinolide. […] Besides an increase in the overall production of embryos, many of the embryos produced from the brassinolide treatment were 5-6 mm long heart shaped embryos (more developed), whereas there were none at this stage in the control treatment. […]

[3] = test system: cotton hypocotyl explants; test: Effect of ACC during callus induction or embryogenic callus induction step
Experimental: An ethylene precursor, 1-aminocyclopropane-1-carboxylic acid (ACC) was added at the step of undifferentiated callus formation, and removed prior to embryogenesis, to speed up embryogenic callus formation.
Three studies were performed to define the effect of ACC on enhancing embryogenic callus formation. In the first experiment summarized in Table 19, hypocotyl explants were placed on UMSEL medium containing different concentrations of ACC (Treatments 2-6), or containing no ACC (treatment 7). The plates were unwrapped and placed in two separate boxes (Treatments 2-6 in one box and Treatments 7-12 in another), and cultured at 28° C. with a photoperiod of 16 hr light/8 hr darkness. After four weeks of callus induction, the calli were transferred to UMO medium without ACC (Treatments 2-6), or to UMO plus different concentrations of ACC (Treatments 8-12) for embryogenic callus induction. The plates were wrapped with PARAFILM at this stage.

[4] = test system: Agrobacterium-inoculated cotton hypocotyl explants; test: Effect of ACC on embryogenic callus from transformed tissue (pMON15722, kanamycin selection)
Experimental: Addition of ACC produced a similar enhancing effect on producing embryogenic callus from transformed tissue. The hypocotyl explants were inoculated with Agrobacterium containing a plant transformation vector pMON15722 having an expression unit conferring kanamycin tolerance. The explants were pre-soaked in 2-hr in MSO glucose medium (Table 3) before inoculation. After 2 days of co-culture at about 24° C., the inoculated hypocotyl pieces were placed on WPSEL medium containing 45 mg/L of kanamycin for 4 weeks for callus induction. After callus induction, the explants were again transferred to WPSEL medium for another 4 weeks. Different concentrations of ACC were incorporated in the medium at this step.

[5] = 2 μM brassinolide in TRP+ medium
[6] = 5 μM brassinolide in TRP+ medium
[7] = 10 μM brassinolide in TRP+ medium
[8] = 15 μM brassinolide in TRP+ medium
[9] = ACC 0.01 mM at callus induction step (UMSEL), removed on UMO
[10] = ACC 0.1 mM at callus induction step (UMSEL)
[11] = ACC 0.5 mM at callus induction step (UMSEL)
[12] = ACC 1 mM at callus induction step (UMSEL)
[13] = ACC 5 mM at callus induction step (UMSEL)

CC(C)[C@@H](C)[C@@H](O)[C@H](O)[C@@H](C)[C@H]1CC[C@H]2[C@@H]3COC(=O)[C@H]4C[C@H](O)[C@H](O)C[C@]4(C)[C@H]3CC[C@]12C [Brassinolide, 24-epibrassinolide] was tested, and the “Number of Embryos Produced” value ([1]; 10 μM brassinolide, 9% O2, 4 weeks) was 18, the “Number of Embryos Produced” value ([1]; 10 μM brassinolide, 9% O2, 7 weeks) was 30 and the “Number of Embryos Produced” value ([1]; 10 μM brassinolide, 9% O2, 9 weeks) was 48. The “Number of Embryos Produced” value ([1]; 10 μM brassinolide, 21% O2, 4 weeks) was 21, the “Number of Embryos Produced” value ([1]; 10 μM brassinolide, 21% O2, 7 weeks) was 28 and the “Number of Embryos Produced” value ([1]; 10 μM brassinolide, 21% O2, 9 weeks) was 21. For the same molecule, the “Number of Embryos Produced” value ([1]; 50 μM brassinolide, 9% O2, 4 weeks) was 8, the “Number of Embryos Produced” value ([1]; 50 μM brassinolide, 9% O2, 7 weeks) was 12 and the “Number of Embryos Produced” value ([1]; 50 μM brassinolide, 9% O2, 9 weeks) was 35. The “Number of Embryos Produced” value ([1]; 50 μM brassinolide, 21% O2, 4 weeks) was 10, the “Number of Embryos Produced” value ([1]; 50 μM brassinolide, 21% O2, 7 weeks) was 8 and the “Number of Embryos Produced” value ([1]; 50 μM brassinolide, 21% O2, 9 weeks) was 11. The “Number of Embryos Produced” value ([1]; 100 μM brassinolide, 9% O2, 4 weeks) was 1, the “Number of Embryos Produced” value ([1]; 100 μM brassinolide, 9% O2, 7 weeks) was 9 and the “Number of Embryos Produced” value ([1]; 100 μM brassinolide, 9% O2, 9 weeks) was 21. The “Number of Embryos Produced” value ([1]; 100 μM brassinolide, 21% O2, 4 weeks) was 6, the “Number of Embryos Produced” value ([1]; 100 μM brassinolide, 21% O2, 7 weeks) was 9 and the “Number of Embryos Produced” value ([1]; 100 μM brassinolide, 21% O2, 9 weeks) was 33. The “Brassinolide level giving the greatest response” value ([1]; 9% O2) was 10 µM, the “Brassinolide level more useful” value ([1]; 21% O2) was 100 µM and the “Embryo stages: 2-3 mm globules” value [2, 5] was 3. For the same molecule, the “Embryo stages: 5-6 mm heart shaped” value [2, 5] was 0, the Total embryos [2, 5] was 3 and the “Embryo stages: 2-3 mm globules” value [2, 6] was 10. For the same molecule, the “Embryo stages: 5-6 mm heart shaped” value [2, 6] was 8, the Total embryos [2, 6] was 18 and the “Embryo stages: 2-3 mm globules” value [2, 7] was 6. The “Embryo stages: 5-6 mm heart shaped” value [2, 7] was 11, the Total embryos [2, 7] was 17 and the “Embryo stages: 2-3 mm globules” value [2, 8] was 6. The “Embryo stages: 5-6 mm heart shaped” value [2, 8] was 9 and the Total embryos [2, 8] was 15.

NC1(C(=O)O)CC1 [ACC, 1-aminocyclopropane-1-carboxylic acid] was tested, and the “% EC at 7 week” value [3, 9] was 80%, the “% EC at 9 week” value [3, 9] was 94% and the “% EC at 9 week” value ([3]; ACC 0.01 mM at embryogenic callus induction step (UMO)) was 35%. The “% EC at 7 week” value [3, 10] was 50%, the “% EC at 9 week” value [3, 10] was 90% and the “% EC at 9 week” value ([3]; ACC 0.1 mM at embryogenic callus induction step (UMO)) was 5%. For the same molecule, the “% EC at 7 week” value [3, 11] was 58%, the “% EC at 9 week” value [3, 11] was 88% and the “% EC at 9 week” value ([3]; ACC 0.5 mM at embryogenic callus induction step (UMO)) was 10%. The “% EC at 7 week” value [3, 12] was 28%, the “% EC at 9 week” value [3, 12] was 62% and the “% EC at 9 week” value ([3]; ACC 1 mM at embryogenic callus induction step (UMO)) was 10%. For the same molecule, the “% EC at 9 week” value ([3]; ACC 3 mM at embryogenic callus induction step (UMO)) was 0%, the “% EC at 7 week” value [3, 13] was 0% and the “% EC at 9 week” value [3, 13] was 0%. For the same molecule, the “% Pieces w/ EC after 6 weeks on UMO medium with Kanamycin” value (shortened to “% Pieces w/ EC after 6 weeks”) ([4]; ACC 10 μM during non-embryogenic callus growth on WPSEL) was 18.4%, the “% Pieces w/ EC after 6 weeks” value ([4]; ACC 30 μM during non-embryogenic callus growth on WPSEL) was 22.1% and the “% Pieces w/ EC after 6 weeks” value ([4]; ACC 60 μM during non-embryogenic callus growth on WPSEL) was 21.6%. The “% Pieces w/ EC after 6 weeks” value ([4]; ACC 100 μM during non-embryogenic callus growth on WPSEL) was 26.5% and the “% Pieces w/ EC after 6 weeks” value ([4]; ACC 150 μM during non-embryogenic callus growth on WPSEL) was 44.0%.
